Assay [1] has as its target D2 (Homo sapiens (Human), UniProt P14416). The experiment in a line: D2 binding assay ([3H] 7-OH-DPAT, HEK293 D2L membranes). The note with it: numeric values. How it is done:
D2 Binding Assay Protocol
The testing compounds were diluted with DMSO, starting at 2 mM, with 8-points and 5-fold serial dilutions. droperidol was diluted with DMSO, starting at 0.2 mM, with 8-points and 4-fold serial dilutions.
1 μL of a compound of the present disclosure and the reference compound (Table O) was transferred to an assay plate. 1 μL of droperidol was transferred to an assay plate according to the plate map for nonspecific binding (Low control: LC). 1 μL of DMSO was transferred to an assay plate according to the plate map for total binding (High control: HC). Following a plate map, 100 μL of the membrane stock solutions and radio ligand were added into the plate. The plates were sealed and shaken with 300 rpm.
Unifilter-96 GF/C filter plates were soaked with 50 μL of 0.3% PEI per well for about 0.5 hours at room temperature. When the binding assays were complete, the reaction mixture was filtered through the GF/B filter plates using Perkin Elmer Filtermate Harvester, and each plate was washed 4 times with cold wash buffer. The filter plates were dried for 1 hour at 50° C. After drying, the bottom of the filter plate wells were sealed using Perkin Elmer Unifilter-96 backing seal tape. 50 μL of Perkin Elmer Microscint 20 cocktail was added. The top of the filter plates were sealed with Perkin Elmer TopSeal-A sealing film.
^3H trapped on filters were counted using Perkin Elmer MicroBeta2 Reader. Inhibition constants were calculated using the following equation: […]
The data was analyzed using Prism 5. The model used was “log(inhibitor) vs. response—Variable slope” to fit the data and calculate IC50. The IC50 was then converted to Ki using the following equation: Ki=IC50/(1+L/Kd), wherein L is the radioligand concentration in the reaction system; Kd is the affinity of radioligand to the receptor. As shown in Table Q Compound No. 7 has a lower affinity for D2 when compared to Compounds A-2, A-3, A-4, and A-5.

Assay [2] deals with H1 (Homo sapiens (Human), UniProt P35367). The experiment in a line: H1 binding assay ([3H]pyrilamine, HEK293 stable cell line membranes). The note with it: Table E, class symbols. How it is done: Example 25. H1 and 5-HT2A Binding Assay Protocol
H1, sequence (P35367 whole entry): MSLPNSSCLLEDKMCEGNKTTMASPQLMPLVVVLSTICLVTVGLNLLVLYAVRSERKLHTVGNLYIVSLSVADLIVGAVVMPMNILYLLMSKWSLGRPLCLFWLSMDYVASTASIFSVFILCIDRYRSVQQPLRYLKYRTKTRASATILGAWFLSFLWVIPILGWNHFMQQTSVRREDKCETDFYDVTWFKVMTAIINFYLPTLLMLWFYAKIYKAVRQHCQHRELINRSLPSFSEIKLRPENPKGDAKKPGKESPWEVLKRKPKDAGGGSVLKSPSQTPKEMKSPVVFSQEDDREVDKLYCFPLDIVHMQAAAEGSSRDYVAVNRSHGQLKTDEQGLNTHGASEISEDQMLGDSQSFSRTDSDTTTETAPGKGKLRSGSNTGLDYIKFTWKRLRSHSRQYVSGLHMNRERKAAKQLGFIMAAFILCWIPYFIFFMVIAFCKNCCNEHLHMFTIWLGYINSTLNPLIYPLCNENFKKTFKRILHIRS
(§1) The testing compounds were diluted with DMSO, starting at 2 mM, with 8-points and 5-fold serial dilutions. Ketanserin and Pyrilamine were diluted with DMSO, starting at 0.2 mM, with 8-points and 5-fold serial dilution.
(§2) 1 μl of a compounds of the present disclosure and either reference compound (Table C) were transferred to assay plates. 1 μl of 0.2 mM Ketanserin or Pyrilamine was transferred to an assay plate according to the plate map for nonspecific binding (Low control: LC). 1 μl of DMSO was transferred to an assay plate according to plate map for total binding (High control: HC).
(§3) 100 μlof membrane stocks were dispensed into the plates, following the plate map. 100 of radio ligand was added. The plates were sealed and shaken at 300 rpm at room temperature for 1 hour. The Unifilter-96 GF/C filter plates were soaked with 50 of 0.3% PEI per well for at least 0.5 hour at room temperature.
(§4) When the binding assays were complete, the reaction mixture was filtered through GF/C plates using Perkin Elmer Filtermate Harvester, and then each plate was washed 4 times with cold wash buffer. The filter plates were dried for 1 hour at 50 degrees. After drying, the bottom of the filter plate wells were sealed using Perkin Elmer Unifilter-96 backing seal tape. 50 μl of Perkin Elmer Microscint 20 cocktail was added. The top of the filter plates were sealed with Perkin Elmer TopSeal-A sealing film.
(§5) ^3H trapped on filters were counted using Perkin Elmer MicroBeta2 Reader. Inhibition constants were calculated using the following equation:
(§6) [formula] The data was analyzed using Prism 5. The model used was “log(inhibitor) vs. response—Variable slope” to fit the data and calculate IC50. The IC50 was then converted to Ki using following equation: Ki=IC50/(1+L/Kd). L is the radioligand concentration in the reaction system; Kd is the affinity of radioligand to the receptor.

For assay [3], the target named is 5-HT2A (Homo sapiens (Human), UniProt P28223). The experiment in a line: 5-HT2A binding assay ([3H]-Ketanserin, HEK293 stable cell line membranes). The following applies: Table F, class symbols. How it is done:
H1 and 5-HT2A Binding Assay Protocol
as §1, §2, §3, §4, §5, §6

D2, sequence (P14416 whole entry): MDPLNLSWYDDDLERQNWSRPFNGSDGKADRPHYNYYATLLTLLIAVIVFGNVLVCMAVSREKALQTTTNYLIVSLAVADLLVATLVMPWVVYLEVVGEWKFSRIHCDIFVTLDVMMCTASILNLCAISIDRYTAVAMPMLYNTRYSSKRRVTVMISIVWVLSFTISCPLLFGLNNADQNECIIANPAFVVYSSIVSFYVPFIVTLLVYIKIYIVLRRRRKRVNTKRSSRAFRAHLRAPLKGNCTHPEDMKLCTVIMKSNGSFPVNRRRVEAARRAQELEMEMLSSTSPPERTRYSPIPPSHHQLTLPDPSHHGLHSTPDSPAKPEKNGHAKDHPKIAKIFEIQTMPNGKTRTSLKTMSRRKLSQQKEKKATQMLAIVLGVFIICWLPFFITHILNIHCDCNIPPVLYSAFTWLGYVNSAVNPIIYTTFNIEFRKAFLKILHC
5-HT2A, sequence (P28223 whole entry, species assumed): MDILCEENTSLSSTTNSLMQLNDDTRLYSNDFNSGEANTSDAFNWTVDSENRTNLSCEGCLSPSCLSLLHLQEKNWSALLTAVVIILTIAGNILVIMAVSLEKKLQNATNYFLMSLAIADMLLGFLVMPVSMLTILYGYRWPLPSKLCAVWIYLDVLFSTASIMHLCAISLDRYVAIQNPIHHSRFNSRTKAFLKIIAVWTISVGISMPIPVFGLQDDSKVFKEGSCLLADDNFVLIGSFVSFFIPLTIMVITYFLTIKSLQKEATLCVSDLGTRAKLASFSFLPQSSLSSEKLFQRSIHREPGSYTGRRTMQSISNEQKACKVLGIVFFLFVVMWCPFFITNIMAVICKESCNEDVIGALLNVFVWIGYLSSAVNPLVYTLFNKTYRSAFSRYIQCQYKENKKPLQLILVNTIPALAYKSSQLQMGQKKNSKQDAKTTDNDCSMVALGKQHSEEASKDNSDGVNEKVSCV

Turning to `Cc1ccc2c(c1)Oc1cc(C)ccc1C(N1CCN(CC(C)(C)C(=O)O)CC1)=N2` [Compound No. 7, 3-(4-(3,7-dimethyldibenzo[b,f][1,4]oxazepin-11-yl)piperazin-1-yl)-2,2-dimethylpropanoic acid], the inhibition constant Ki in assay [1] is > 50000 nM; in assay [2], > 50 nM; in assay [3], 1 to 25 nM.

The values above are taken from patent US11046651B2, “Piperazine substituted azapine derivatives and uses thereof” (Alairion, Inc., priority 2019, dated 2021).
